The source made the active and inactive calls. The rule behind the calls is not given here.
Key:
[1] = test system: NCI-H23; experiment: Cytotoxicity against human NCI-H23 cells […] at 50 uM measured after 48 hrs by MTT assay relative to control; format: functional
[2] = test system: SW-620; experiment: Cytotoxicity against human SW620 cells assessed as inhibition of cell growth at 50 uM measured after 48 hrs by MTT assay relative to control; format: functional
[3] = test system: NCI-H1299; experiment: Cytotoxicity against human NCI-H1299 cells assessed as inhibition of cell growth at 50 uM measured after 48 hrs by MTT assay relative to control; format: functional; parameters: scale not given: the % may be the effect or the level left
[4] = test system: Caco-2; experiment: Cytotoxicity against human Caco-2 cells assessed as inhibition of cell growth at 50 uM measured after 48 hrs by MTT assay relative to control; format: functional; parameters: scale not given: the % may be the effect or the level left
[5] = test system: A-375; experiment: Cytotoxicity against human A-375 cells […] at 50 uM measured after 48 hrs by MTT assay relative to control; format: functional
[6] = test system: BEAS-2B; experiment: Cytotoxicity against human BEAS-2B cells assessed as inhibition of cell growth at 50 uM measured after 48 hrs by MTT assay relative to control; format: functional
[7] = test system: NCI-H23; experiment: Cytotoxicity against human NCI-H23 cells assessed as inhibition of cell growth measured after 48 hrs by MTT assay; format: functional, cell-based; settings: NCI-H23, 48 h
[8] = test system: SW-620; experiment: Cytotoxicity against human SW620 cells assessed as inhibition of cell growth measured after 48 hrs by MTT assay; format: functional, cell-based
[9] = test system: NCI-H1299; experiment: Cytotoxicity against human NCI-H1299 cells assessed as inhibition of cell growth measured after 48 hrs by MTT assay; format: functional, cell-based; settings: NCI-H1299, 48 h
[10] = test system: Caco-2; experiment: Cytotoxicity against human Caco-2 cells assessed as inhibition of cell growth measured after 48 hrs by MTT assay; format: functional, cell-based; settings: Caco-2, 48 h
[11] = test system: A-375; experiment: Cytotoxicity against human A-375 cells assessed as inhibition of cell growth measured after 48 hrs by MTT assay; format: functional, cell-based; settings: A-375, 48 h
[12] = test system: BEAS-2B; experiment: Cytotoxicity against human BEAS-2B cells assessed as inhibition of cell growth measured after 48 hrs by MTT assay; format: functional, cell-based
[13] = test system: NCI-H23; experiment: Induction of cell cycle arrest in human NCI-H23 cells assessed as accumulation of cells at G1 phase at 5 uM incubated for 24 hrs by PI staining based flow cytometry analysis (reference value: 56.95+/-1.02%); format: functional
[14] = test system: NCI-H23; experiment: Induction of cell cycle arrest in human NCI-H23 cells assessed as accumulation of cells at G1 phase at 10 uM incubated for 24 hrs by PI staining based flow cytometry analysis (reference value: 56.95+/-1.02%); format: functional
[15] = test system: NCI-H23; experiment: Induction of cell cycle arrest in human NCI-H23 cells assessed as accumulation of cells at S phase at 5 uM incubated for 24 hrs by PI staining based flow cytometry analysis (reference value: 15.45+/-1.79%); format: functional
[16] = test system: NCI-H23; experiment: Induction of cell cycle arrest in human NCI-H23 cells assessed as accumulation of cells at S phase at 10 uM incubated for 24 hrs by PI staining based flow cytometry analysis (reference value: 15.45+/-1.79%); format: functional
[17] = test system: NCI-H23; experiment: Induction of cell cycle arrest in human NCI-H23 cells assessed as accumulation of cells at G2/M phase at 5 uM incubated for 24 hrs by PI staining based flow cytometry analysis (reference value: 27.60+/-0.83%); format: functional
[18] = test system: NCI-H23; experiment: Induction of cell cycle arrest in human NCI-H23 cells assessed as accumulation of cells at G2/M phase at 10 uM incubated for 24 hrs by PI staining based flow cytometry analysis (reference value: 27.60+/-0.83%); format: functional
[19] = test system: NCI-H23; experiment: Induction of cell cycle arrest in human NCI-H23 cells assessed as accumulation of cells at SubG1 phase at 5 to 10 uM incubated for 24 hrs by PI staining based flow cytometry analysis (reference value: 0%); format: functional; settings: dose 5-10 µM
[20] = test system: NCI-H23; experiment: Induction of apoptosis in human NCI-H23 cells assessed as apoptosis rate at 5 uM incubated for 24 hrs by annexin V-FITC and propidium iodide staining based flow cytometry analysis (reference value: 6.88+/-2.63%); format: functional
[21] = test system: NCI-H23; experiment: Induction of apoptosis in human NCI-H23 cells assessed as apoptosis rate at 10 uM incubated for 24 hrs by annexin V-FITC and propidium iodide staining based flow cytometry analysis (reference value: 6.88+/-2.63%); format: functional
[22] = test system: NCI-H23; experiment: Induction of apoptosis in human NCI-H23 cells assessed as apoptosis rate incubated for 24 hrs by annexin V-FITC and propidium iodide staining based flow cytometry analysis; format: functional, cell-based; settings: dose 5-10 µM
[23] = Homo sapiens, SW-620, 48 h, read-out: IC50

For `COC(=O)[C@@]12Oc3c(c(O)cc(C)c3-c3ccc4c(c3O)C(=O)C3=C(O)C[C@H](C)[C@H](O)[C@]3(C(=O)OC)O4)C(=O)C1=C(O)CC[C@H]2O`, the Activity [1] was 82.6%, the “Cell growth relative to control” value [2] was 106.3% and the Activity [3] was 81.1%. For the same compound, the Activity [4] was 85%, the Activity [5] was 79.9% and the “Cell growth relative to control” value [6] was 99.5%.

In the case of `COC(=O)[C@]1([C@H]2OC(=O)C[C@@H]2C)CC(=O)c2c(ccc(-c3ccc4c(c3O)C(=O)C[C@@](C(=O)OC)([C@H](O)[C@@H](C)CC(=O)O)O4)c2O)O1`, the IC50 [7] is reported as > 50 µM, the IC50 [8, 23] is reported as > 50 µM and the IC50 [9] is reported as > 50 µM. For the same compound, the IC50 [10] was 25.9 µM, the IC50 [11] was > 50 µM and the IC50 ([12]; beas-2b) was “Not Active”. The Activity [1] was 90.1%, the “Cell growth relative to control” value [2] was 70.5% and the Activity [3] was 76.4%. For the same compound, the Activity [4] was 46.8%, the Activity [5] was 63% and the “Cell growth relative to control” value [6] was 158.7%.

In the case of `COC(=O)[C@@]12Oc3ccc(-c4ccc(O)c5c4O[C@]4(C(=O)OC)C(=C(O)C[C@H](C)[C@@H]4O)C5=O)c(O)c3C(=O)C1=C(O)C[C@H](C)[C@H]2O`, the IC50 [7] is reported as 6.4 µM, the IC50 ([8]; sw-620) is reported as “Not Active” and the IC50 [9] is reported as > 50 µM. The IC50 [10] was > 50 µM, the IC50 [11] was > 50 µM and the IC50 ([12]; beas-2b) was “Not Active”. For the same compound, the Activity [1] was 7.2%, the “Cell growth relative to control” value [2] was 98.6% and the Activity [3] was 64.9%. The Activity [4] was 70.2%, the Activity [5] was 75% and the “Cell growth relative to control” value [6] was 151.6%. The Activity [13] was 46.56%, the Activity [14] was 38.68% and the Activity [15] was 15%. It also gave an Activity [16] of 8.85%, an Activity [17] of 38.43% and an Activity [18] of 52.48%. The Activity [19] was 0%, the Activity [20] was 45.71% and the Activity [21] was 60.11%. The Activity [22] was “Dose-Dependent Effect”.

For `COC(=O)[C@@]12Oc3ccc(-c4ccc(O)c5c4O[C@@](C(=O)OC)([C@H]4OC(=O)C[C@@H]4C)CC5=O)c(O)c3C(=O)C1=C(O)C[C@H](C)[C@H]2O`, the Activity [1] was 56%, the “Cell growth relative to control” value [2] was 94.9% and the Activity [3] was 65.9%. The Activity [4] was 82.4%, the Activity [5] was 76.8% and the Activity [6] was “inactive”.

`COC(=O)[C@@]12Oc3c(-c4ccc(O)c5c4O[C@]4(C(=O)O)C(=C(O)C[C@@H](C)[C@@H]4O)C5=O)ccc(O)c3C(=O)C1=C(O)C[C@H](C)[C@@H]2O` was tested, and the IC50 [7] was 3.9 µM, the IC50 ([8]; sw-620) was “Not Active” and the IC50 [9] was 30.9 µM. The IC50 [10] was > 50 µM, the IC50 [11] was > 50 µM and the IC50 ([12]; beas-2b) was “Not Active”. The Activity [1] was 6.7%, the “Cell growth relative to control” value [2] was 99.9% and the Activity [3] was 38.2%. For the same compound, the Activity [4] was 73.2%, the Activity [5] was 84.1% and the “Cell growth relative to control” value [6] was 155.5%.

With `CNC(=O)c1cc(Oc2ccc(NC(=O)Nc3ccc(Cl)c(C(F)(F)F)c3)cc2)ccn1` [SORAFENIB] the IC50 [7] was 2.4 µM, the IC50 [8, 23] was 2.3 µM and the IC50 [9] was 3.4 µM. For the same compound, the IC50 [10] was 1.3 µM, the IC50 [11] was 1.8 µM and the IC50 ([12]; Homo sapiens, BEAS-2B, 48 h, read-out: IC50) was 31.6 µM.

In the case of `COC(=O)[C@@]12Oc3c(-c4ccc5c(c4O)C(=O)C[C@](C(=O)OC)([C@@H]4OC(=O)C[C@@H]4C)O5)ccc(O)c3C(=O)C1=C(O)C[C@H](C)[C@H]2O`, the Activity [1] is reported as 102.6%, the “Cell growth relative to control” value [2] is reported as 117% and the Activity [3] is reported as 66.2%. For the same compound, the Activity [4] was 102.4%, the Activity [5] was 106% and the “Cell growth relative to control” value [6] was 96.8%.

`COC(=O)[C@@]1([C@H](O)[C@@H](C)CC(=O)O)CC(=O)c2c(ccc(-c3ccc(O)c4c3O[C@](C(=O)OC)([C@H](O)[C@@H](C)CC(=O)O)CC4=O)c2O)O1` was tested, and the Activity [1] was 73.1%, the “Cell growth relative to control” value [2] was 99.3% and the Activity [3] was 78.6%. For the same compound, the Activity [4] was 94.4%, the Activity [5] was 91.7% and the “Cell growth relative to control” value [6] was 110%.

`COC(=O)[C@@]12Oc3ccc(-c4ccc5c(c4O)C(=O)C[C@](C(=O)OC)([C@H]4OC(=O)C[C@@H]4C)O5)c(O)c3C(=O)C1=C(O)C[C@H](C)[C@H]2O` was tested, and the Activity [1] was 87.6%, the “Cell growth relative to control” value [2] was 90.4% and the Activity [3] was 78.4%. For the same compound, the Activity [4] was 82.5%, the Activity [5] was 74.7% and the “Cell growth relative to control” value [6] was 109.9%.

For `COC(=O)[C@@]12Oc3c(-c4ccc5c(c4O)C(=O)C[C@](C(=O)OC)([C@H]4OC(=O)C[C@@H]4C)O5)ccc(O)c3C(=O)C1=C(O)C[C@H](C)[C@H]2O`, the Activity [1] was 82.8%, the “Cell growth relative to control” value [2] was 111% and the Activity [3] was 64.2%. For the same compound, the Activity [4] was 99.2%, the Activity [5] was 86.1% and the “Cell growth relative to control” value [6] was 179.2%.

For `COC(=O)[C@@]12Oc3cc(C)c(-c4ccc5c(c4O)C(=O)C4=C(O)C[C@H](C)[C@H](O)[C@]4(C(=O)OC)O5)c(O)c3C(=O)C1=C(O)CC[C@H]2O`, the IC50 [7] was 6.9 µM, the IC50 [8, 23] was > 50 µM and the IC50 [9] was > 50 µM. The IC50 [10] was > 50 µM, the IC50 [11] was > 50 µM and the IC50 ([12]; beas-2b) was “Not Active”. For the same compound, the Activity [1] was 5.2%, the “Cell growth relative to control” value [2] was 98.9% and the Activity [3] was 76.4%. The Activity [4] was 68.9%, the Activity [5] was 83.9% and the “Cell growth relative to control” value [6] was 155.8%.

With `COC(=O)C[C@H](C)[C@@H](O)[C@]1(C(=O)OC)CC(=O)c2c(O)ccc(-c3ccc4c(c3O)C(=O)C[C@](C(=O)OC)([C@@]3(O)OC(=O)C[C@@H]3C)O4)c2O1` the Activity [1] was 86.7%, the “Cell growth relative to control” value [2] was 72.9% and the Activity [3] was 70.4%. For the same compound, the Activity [4] was 55.9%, the Activity [5] was 102.5% and the “Cell growth relative to control” value [6] was 171%.

With `COC(=O)C[C@H](C)[C@@H](O)[C@]1(C(=O)OC)CC(=O)c2c(ccc(-c3ccc4c(c3O)C(=O)C[C@](C(=O)OC)([C@@]3(O)OC(=O)C[C@@H]3C)O4)c2O)O1` the Activity [1] was 73.6%, the “Cell growth relative to control” value [2] was 115.5% and the Activity [3] was 87.9%. For the same compound, the Activity [4] was 92.1%, the Activity [5] was 94.4% and the “Cell growth relative to control” value [6] was 171.6%.

For `COC(=O)[C@@]1([C@H](O)[C@@H](C)CC(=O)O)CC(=O)c2c(ccc(-c3ccc4c(c3O)C(=O)C[C@@](C(=O)OC)([C@H](O)[C@@H](C)CC(=O)O)O4)c2O)O1`, the Activity [1] was 83.6%, the “Cell growth relative to control” value [2] was 98.7% and the Activity [3] was 64.9%. For the same compound, the Activity [4] was 94.4%, the Activity [5] was 103.2% and the “Cell growth relative to control” value [6] was 105.5%.

`COC(=O)[C@]12Oc3ccc(-c4ccc5c(c4O)C(=O)C4=C(O)C[C@@H](C)[C@H](O)[C@@]4(C(=O)OC)O5)c(O)c3C(=O)C1=C(O)C[C@@H](C)[C@@H]2O` [SECALONIC ACID A] was tested, and the IC50 [7] was 2.6 µM, the IC50 [8, 23] was > 50 µM and the IC50 [9] was > 50 µM. The IC50 [10] was > 50 µM, the IC50 [11] was > 50 µM and the IC50 ([12]; beas-2b) was “Not Active”. The Activity [1] was 8.7%, the “Cell growth relative to control” value [2] was 80.1% and the Activity [3] was 73.6%. For the same compound, the Activity [4] was 54.5%, the Activity [5] was 75.6% and the “Cell growth relative to control” value [6] was 107.3%.

From ChEMBL document CHEMBL5357084, “Structure-Guided Discovery of Diverse Cytotoxic Dimeric Xanthones/Chromanones from Penicillium chrysogenum C-7-2-1 and Their Interconversion Properties” (J Nat Prod, 2024)
